Results reported in US8394776B2, “Use of ursolic acid saponin,oleanolic acid saponin in preparation of increasing leucocytes and/or platelet medicine” (Chengdu Di'Ao Jiuhong Pharmaceutical Factor, priority 2007, dated 2013).
Marks after values point to notes of the source that are not given here.

Columns and labels:
WBC = assay: 60Co-γ-induced leukopenia in mice: WBC; type: in vivo, Kunming mice
Excerpt: In order to illustrate the present invention in detail, with a model induced by ^60Co-γ rays, the effects of G-1 and G-22 on leukocytes of chemotherapy-induced-leukopenia mice were compared. The specific operation and the results are as follows.
Healthy Kunming mice, of which half were male and the other half were female, were divided into 6 groups randomly, with 17-18 in each group. Blood was taken from caudal vein to determine the normal hemogram (leucocyte, erythrocyte, platelet and hemoglobin), and adjustments were made according to body weights and hemogram results. The normal control group and model group were given isometric physiological saline once a day for 7 days, and then the post-radiation hemogram was determined. Except the normal control group, other groups were each subjected to a whole body exposure to ^60Co-γ rays at a total dose of 3.0 Gy to prepare the models of leukopenia in mice, followed by further administration for 14 days. The G-CSF group was adminitrated through subcutaneous injection for 5 days from the irradiation day on and the hemogram was determined by taking blood respectively on day 3, day 7 and day 14 after irradiation.

erythrocytes = assay: Comparison of hemolytic activities (HD50); type: cell-based, rabbit
Procedure: The test samples were dissolved in DMSO/physiological saline (1:4) as a solvent to generate the tested concentration gradients of 40, 80, 120, 160, 200 μg/ml. Blood (25 ml) was taken from a rabbit heart, poured into an erlenmeyer flask containing glass beads and shook gently for 10 min to remove fibrinogen so as to convert the blood into defidrinated blood. The resultant blood was transferred into a graduation centrifugal tube. About 10 times physiological saline was added, shook up and centrifuged at 2000 r/min for 5 minutes. The supernatant was removed, and the precipitated erythrocytes were washed with physiological saline again by the above method for 4 times until the supernatant was colorless and transparent. The resulant erythrocytes were prepared into a 10% suspension using physiological saline for testing. 250 μl of the 10% erythrocyte suspension was added into 2.5 ml of a tested sample, solvent (blank control) or distilled water (positive control), mixed thoroughly, and immediately placed in a thermotank maintained at 37° C. for incubation; and it was taken out 1 hour later and centrifuged at 3000 r/min for 5 minutes. The supernatant was taken for determining the OD value at 540 nm with a spectrophotometer. Hemolysis (Hemolysis Percentage)=(absorbance of sample−absorbance of blank control)×100%÷(absorbance of positive control-absorbance of blank control); and the data processing was performed by SPSS13.0 statistical software with drug concentration as an independent variable X and hemolysis as a dependent variable Y to obtain a linear regression equation; then, the drug concentration causing 50% hemolysis, i.e HD50, was calculated according to the equation. A P-value <0.05 was considered statistically significant.

[1] = test system: bone marrow mononuclear cell (BMMNC); assay: Monocytic proliferation in bone marrow of mice cultured in vitro (SRB method); type: cell-based, KunMing mice; conditions: 1 μg/ml; cultured 5 days; versus blank control
Excerpt: 15-20 KunMing mice (purchased from Laboratory Animal Center of Zhengzhou University, Henan) of either sex were killed by cervical vertebral dislocation. Bilateral thighbones were isolated and caput femoris was cut off. The marrow was washed repeatedly with serum-free RPMI1640 (Gibco Corp.), the wash solution containing marrow cells was collected, sucked and blew repeatedly with a pipette to make the cells disperse. After standing for a moment, the supernatant was sucked up and centrifugated at 100 g for 3 min to collect the cell pellet. The cells were resuspended in a culture media and brought to a volume of 5 ml. The cell suspension was added to the upper layer of a centrifugal tube containing 5 ml of a lymphocyte separation medium of mice and centrifugated at 400 g for 30 min. The milk-white bone marrow mononuclear cell (BMMNC) layer in the middle of the interface was collected and washed with serum-free medium RPMI1640 for three times to obtain a BMMNC suspension, which was inoculated into a 96-well plate at forty thousand per well after counting. Positive drugs rhG-CSF (recombinant granulocyte colony-stimulating factor, manufactured by QI LU Pharmaceutical Co., LTD., Shandong) or test samples of different concentrations were added, and meanwhile a blank control group without drug was established. They were cultured in a 5% CO2 incubator at 37 for 5 days. Cell proliferation was measured by a conventional SRB (Sigma) method in which OD at 490 nm was measured after being dyed with SRB. The growth rates of cell proliferation after drug treatment were calculated (Growth rate of cell proliferation=experimental group-blank control group/blank control group*100%).

platelets (PLT) = assay: Cyclophosphamide-induced leukopenia in mice: platelets (PLT); type: in vivo, Kunming mice; conditions: Experimental Example 3, 0.8 mg/kg
Procedure: (§1) Further, in vivo experiments were carried out on the compounds involved in the present invention using animal models of cyclophosphamide-induced leukopenia in mice. Experimental methods are briefed as follows: Healthy Kunming mice, of which half were male and the other half were female, were divided into groups, each group incuding 18 mice, and those mice weighing 18-22 g were selected and divided into groups randomly according to their body weights. Each group was given a different drug, wherein the negative control group and model control group were given physiological saline of the same volume, and the positive control group was treated with granulocyte colony-stimulating factors 40 μg/kg through subcutaneous injection (injection volume: 0.1 ml/10 g). After administration for 3 days, except the negative control group, other treatment groups were treated with 100 mg/kg cyclophosphamide (CY) through lumbar injection once a day for three days to cause a decrease of leukocytes in mice. A drop of blood (20 μl) was taken from posterior orbital venous plexus to detect the hemogram to observe the situation of leukocytes and platelets on day 1, day 3 and/or day 5 after the final lumbar injection of cyclophosphamide (i.e day 1, day 3 and/or day 5 after modeling) (Note: Each treatment group was administrated incessantly). The mice were killed on day 5 after the final lumbar injection of cyclophosphamide (i.e day 5 after modeling), and the leukocytes (WBC) and platelets (PLT) of the hemogram index were counted.
(§2) The purpose of this experiment is to study the effect of G-1, G-3, G-11 and G-12 of ursolic acid saponin and oleanolic acid saponin in increasing platelets, and to observe whether G-11 and G-12 of oleanolic acid saponin have an effect in increasing leukocytes.

leukocytes (WBC) = assay: Cyclophosphamide-induced leukopenia in mice: leukocytes (WBC); type: in vivo, Kunming mice; conditions: 0.8 mg/kg; for leukocytes (WBC), Day1 after modeling: CY 100 mg/kg x 3 days
Procedure: as §1
This experiment mainly studies the effect of G-1, G-6 and G-8 of ursolic acid saponin in increasing leukocytes, and compares the therapeutic effects of aglycon of ursolic acid and oleanolic acid and of the compound G-22 which has been disclosed by a patent.
as §2

leucocytes = conditions: administrated through abdominal cavity; 25, 50 and 100 mg/kg; effect obvious at high dose; cited from earlier work
[2] = 0.80 mg/kg i.g., 3.0 Gy whole body

For `C[C@H]1[C@H](C)CC[C@]2(C(=O)O[C@@H]3OC[C@H](O)[C@H](O)[C@H]3O)CC[C@]3(C)C(=CC[C@@H]4[C@@]5(C)CC[C@H](O[C@@H]6OC[C@H](O)[C@H](O)[C@H]6O)C(C)(C)[C@@H]5CC[C@]43C)[C@H]12` [Sample G-1, 3-O-(α-L-arabopyranosyl) ursolic acid-28-O-(α-L-arabopyranosyl) ester], the “effect on leucocyte count of leukopenia mice (in words)” value (WBC; 0.80 mg/kg gastric perfusion, versus model group, day 7 and day 14 after irradiation) was “increased obviously”, the “WBC, 1 week after administration” value (WBC; 0.80 mg/kg i.g. once a day for 7 days, before irradiation) was 9.21 ± 2.16 109/L and the “WBC, Day 3 after irradiation” value (WBC; [2]) was 2.06 ± 0.75 109/L. For the same compound, the “WBC, Day 7 after irradiation” value (WBC; [2]) was 4.59 ± 1.52** 109/L, the “WBC, Day 14 after irradiation” value (WBC; [2]) was 6.37 ± 1.54** 109/L and the “WBC, Normal” value (WBC; normal hemogram before administration (baseline), 0.80 mg/kg i.g. group) was 8.96 ± 1.58 109/L. The “HD50 (drug concentration causing 50% hemolysis)” value (erythrocytes; 10% rabbit erythrocyte suspension, 37° C., 1 hour, from linear regression over 40-200 μg/ml) was 345 µg/mL, the “tendency to cause hemolysis (in words)” value (erythrocytes; comparison among G-1, G-3, G-6, G-8) was “the most difficult to cause hemolysis” and the “Growth Rate of Proliferation %, 1 μg/ml” value [1] was 31.3%. The “effect in increasing platelets (in words)” value (platelets (PLT)) was “obvious effect in increasing leukocytes and platelets”, the “platelets, Day 1 after modelng” value (platelets (PLT)) was 504.67 ± 117.81 and the “platelets, Day 5 after modeling” value (platelets (PLT)) was 413.00 ± 218.95*★★. The “difference in increasing platelets compared with G-22 (in words)” value (platelets (PLT); day 5 after modeling) was “significant difference in increasing leukocytes and platelets”, the “leukocytes (WBC), Day 3 after modeling” value (leukocytes (WBC); Experimental Example 2) was 7.85 ± 3.00**★★ and the “leukocytes (WBC), Day 5 after modeling” value (leukocytes (WBC); Experimental Example 2) was 15.46 ± 10.44. The “leukocytes (WBC), Day1 after modeling” value (leukocytes (WBC); Experimental Example 2) was 1.14 ± 0.56Δ, the “difference in increasing leukocytes compared with G-22 (in words)” value (leukocytes (WBC); Experimental Example 2, especially on day 3 after modeling) was “obvious difference in increasing leukocytes” and the “effect in increasing leukocytes (in words)” value (leukocytes (WBC); Experimental Example 3) was “obvious effect in increasing leukocytes and platelets”. The “leukocytes, Day 1 after modeling” value (leukocytes (WBC); Experimental Example 3) was 0.98 ± 0.55, the “leukocytes, Day 5 after modeling” value (leukocytes (WBC); Experimental Example 3) was 9.33 ± 5.17 and the “difference in increasing leukocytes compared with G-22 (in words)” value (leukocytes (WBC); Experimental Example 3, day 5 after modeling) was “significant difference in increasing leukocytes and platelets”.
In the case of `CC1(C)CC[C@]2(C(=O)O)CC[C@]3(C)C(=CC[C@@H]4[C@@]5(C)CC[C@H](O)C(C)(C)[C@@H]5CC[C@]43C)[C@@H]2C1` [Sample G-20, oleanolic acid], the “Growth Rate of Proliferation %, 1 μg/ml” value [1] is listed as 4.5%, the “effect in increasing leucocytes (in words)” value (leucocytes) is listed as “effective in increasing leucocytes” and the “effect in increasing leukocytes (in words)” value (leukocytes (WBC); Experimental Example 2) is listed as “no obvious effect in increasing leukocytes”. For the same compound, the “leukocytes (WBC), Day 3 after modeling” value (leukocytes (WBC); Experimental Example 2) was 3.88 ± 2.01, the “leukocytes (WBC), Day 5 after modeling” value (leukocytes (WBC); Experimental Example 2) was 7.00 ± 3.22 and the “leukocytes (WBC), Day1 after modeling” value (leukocytes (WBC); Experimental Example 2) was 0.99 ± 0.40.
For `C[C@H]1[C@H](C)CC[C@]2(C(=O)O)CC[C@]3(C)C(=CC[C@@H]4[C@@]5(C)CC[C@H](O)C(C)(C)[C@@H]5CC[C@]43C)[C@H]12` [Sample G-21, ursolic acid], the “Growth Rate of Proliferation %, 1 μg/ml” value [1] is listed as 7.9%, the “effect in increasing leucocytes (in words)” value (leucocytes) is listed as “effective in increasing leucocytes” and the “effect in increasing leukocytes (in words)” value (leukocytes (WBC); Experimental Example 2) is listed as “no obvious effect in increasing leukocytes”. For the same compound, the “leukocytes (WBC), Day 3 after modeling” value (leukocytes (WBC); Experimental Example 2) was 3.94 ± 1.73, the “leukocytes (WBC), Day 5 after modeling” value (leukocytes (WBC); Experimental Example 2) was 7.07 ± 3.14 and the “leukocytes (WBC), Day1 after modeling” value (leukocytes (WBC); Experimental Example 2) was 1.01 ± 0.47.
